Key:
[1] = target: IKKε (Homo sapiens (Human), UniProt Q14164); assay: IKKε TR-FRET enzymatic assay; assay type: biochemical; details: read-out: IKKe IC50
[2] = target: hJAK2 (Homo sapiens (Human), UniProt O60674); assay: hJAK2 LANCE TR-FRET enzymatic assay; assay type: biochemical; details: read-out: JAK2 IC50
[3] = target: TBK1 (Homo sapiens (Human), UniProt Q9UHD2); assay: TBK1 TR-FRET enzymatic assay;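 further: phosphorylation of a biotinylated Ser/Thr peptide by purified full-length recombinant TBK1, read by TR-FRET after 240 min at 25 °C, IC50 is the geometric mean of at least four runs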
TBK1, sequence (Q9UHD2 whole entry): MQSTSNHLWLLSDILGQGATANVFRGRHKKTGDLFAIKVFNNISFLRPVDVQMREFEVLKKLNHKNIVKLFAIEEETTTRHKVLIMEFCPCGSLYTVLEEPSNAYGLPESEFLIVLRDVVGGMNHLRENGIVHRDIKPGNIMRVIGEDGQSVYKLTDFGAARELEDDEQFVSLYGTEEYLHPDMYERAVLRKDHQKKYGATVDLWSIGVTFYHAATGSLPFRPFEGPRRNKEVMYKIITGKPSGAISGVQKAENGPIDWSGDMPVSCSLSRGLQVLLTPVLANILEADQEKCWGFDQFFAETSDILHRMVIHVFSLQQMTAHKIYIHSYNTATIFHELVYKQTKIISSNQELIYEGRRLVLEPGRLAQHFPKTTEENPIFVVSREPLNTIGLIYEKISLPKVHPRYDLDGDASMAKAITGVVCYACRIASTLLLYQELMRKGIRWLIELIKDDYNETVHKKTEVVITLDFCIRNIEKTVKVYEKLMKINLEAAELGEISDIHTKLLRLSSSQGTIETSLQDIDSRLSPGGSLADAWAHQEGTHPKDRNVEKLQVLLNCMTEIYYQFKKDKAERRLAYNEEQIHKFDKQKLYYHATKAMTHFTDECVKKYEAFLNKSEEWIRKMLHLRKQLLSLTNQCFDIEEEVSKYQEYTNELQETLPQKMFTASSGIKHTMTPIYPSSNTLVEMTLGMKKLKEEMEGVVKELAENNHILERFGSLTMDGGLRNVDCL

IKKε, sequence (Q14164 whole entry): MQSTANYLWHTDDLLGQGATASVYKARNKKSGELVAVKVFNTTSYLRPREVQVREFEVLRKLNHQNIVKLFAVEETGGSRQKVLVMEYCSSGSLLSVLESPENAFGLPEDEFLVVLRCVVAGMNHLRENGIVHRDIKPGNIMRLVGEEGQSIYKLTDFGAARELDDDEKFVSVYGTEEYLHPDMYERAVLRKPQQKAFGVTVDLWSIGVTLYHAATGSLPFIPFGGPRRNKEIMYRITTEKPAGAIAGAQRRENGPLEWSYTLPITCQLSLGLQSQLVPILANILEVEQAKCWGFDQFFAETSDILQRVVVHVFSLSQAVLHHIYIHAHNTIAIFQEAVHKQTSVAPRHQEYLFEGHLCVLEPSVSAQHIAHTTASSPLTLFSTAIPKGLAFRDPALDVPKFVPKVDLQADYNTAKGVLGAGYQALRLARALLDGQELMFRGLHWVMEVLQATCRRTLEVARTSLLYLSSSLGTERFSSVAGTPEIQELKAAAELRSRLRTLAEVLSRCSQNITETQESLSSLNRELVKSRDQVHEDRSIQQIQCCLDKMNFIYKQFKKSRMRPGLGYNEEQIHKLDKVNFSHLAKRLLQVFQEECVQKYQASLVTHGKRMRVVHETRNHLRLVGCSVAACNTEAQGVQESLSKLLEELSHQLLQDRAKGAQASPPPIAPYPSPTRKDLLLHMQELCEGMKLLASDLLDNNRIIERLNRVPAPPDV
hJAK2, sequence (O60674 whole entry): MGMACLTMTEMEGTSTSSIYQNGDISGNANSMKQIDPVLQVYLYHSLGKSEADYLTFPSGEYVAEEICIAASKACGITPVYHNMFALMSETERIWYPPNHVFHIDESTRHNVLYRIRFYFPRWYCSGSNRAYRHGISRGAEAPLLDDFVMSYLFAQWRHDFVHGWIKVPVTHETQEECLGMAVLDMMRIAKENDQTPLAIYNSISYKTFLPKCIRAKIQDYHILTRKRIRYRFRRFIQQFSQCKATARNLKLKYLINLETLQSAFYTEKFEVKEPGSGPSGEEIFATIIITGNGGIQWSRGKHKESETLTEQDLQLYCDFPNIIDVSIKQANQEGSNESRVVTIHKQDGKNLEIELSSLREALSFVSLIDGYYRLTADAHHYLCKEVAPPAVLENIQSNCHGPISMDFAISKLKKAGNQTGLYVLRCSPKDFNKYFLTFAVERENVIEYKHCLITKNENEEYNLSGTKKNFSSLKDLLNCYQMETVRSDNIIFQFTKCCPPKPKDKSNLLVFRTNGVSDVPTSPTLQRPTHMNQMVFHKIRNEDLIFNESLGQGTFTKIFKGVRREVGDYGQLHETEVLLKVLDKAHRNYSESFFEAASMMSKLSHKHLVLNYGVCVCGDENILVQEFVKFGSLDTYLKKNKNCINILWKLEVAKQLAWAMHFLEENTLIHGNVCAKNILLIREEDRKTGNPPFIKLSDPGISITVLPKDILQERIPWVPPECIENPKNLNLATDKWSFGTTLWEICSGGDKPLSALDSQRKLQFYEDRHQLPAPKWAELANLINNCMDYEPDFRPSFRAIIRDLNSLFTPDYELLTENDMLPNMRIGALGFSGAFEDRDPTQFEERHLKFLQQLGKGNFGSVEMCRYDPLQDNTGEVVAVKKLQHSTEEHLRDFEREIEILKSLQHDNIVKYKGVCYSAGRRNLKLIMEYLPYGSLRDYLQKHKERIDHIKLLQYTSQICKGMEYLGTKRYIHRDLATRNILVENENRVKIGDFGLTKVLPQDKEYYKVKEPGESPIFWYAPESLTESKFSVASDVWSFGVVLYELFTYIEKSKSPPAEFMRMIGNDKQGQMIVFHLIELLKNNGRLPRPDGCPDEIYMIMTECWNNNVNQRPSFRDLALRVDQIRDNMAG

| SMILES | IC50 [1] [nM] | IC50 [2] [nM] | IC50 [3] [nM] |
| --- | --- | --- | --- |
| N#Cc1cc(-c2ncnc(Nc3ccc(N4CCN(C5COC5)CC4)cc3)n2)ccc1OC1CCN(C(=O)[C@H]2CCC(=O)N2)C[C@H]1F (stereo partly drawn) [Example 113, 2-(((3R)-3-fluoro-1-((R)-5-oxopyrrolidine-2-carbonyl)piperidin-4-yl)oxy)-5-(4-((4-(4-(oxetan-3-yl)piperazin-1-yl)phenyl)amino)-1,3,5-triazin-2-yl)benzonitrile] | 100 | 292 | 64 |
| N#Cc1cc(-c2ncnc(Nc3ccc(N4CCN(C5COC5)CC4)cc3)n2)ccc1O[C@H]1CCC(=O)NC1 [Example 114, (S)-5-(4-((4-(4-(oxetan-3-yl)piperazin-1-yl)phenyl)amino)-1,3,5-triazin-2-yl)-2-((6-oxopiperidin-3-yl)oxy)benzonitrile] | 56 | 175 | 20 |
| C[C@H]1C[C@H](Oc2ccc(-c3ncnc(Nc4ccc(N5CCN(C6COC6)CC5)cc4)n3)cc2C#N)[C@H](F)CN1C(=O)CO [Example 115, 2-(((2S,4S,5R)-5-fluoro-1-(2-hydroxyacetyl)-2-methylpiperidin-4-yl)oxy)-5-(4-((4-(4-(oxetan-3-yl)piperazin-1-yl)phenyl)amino)-1,3,5-triazin-2-yl)benzonitrile] | 21 | ≥ 1000 | 12 |
| CN1CCN(C(=O)c2ccc(Nc3ncnc(-c4ccc(O[C@H]5CCN(C(=O)CO)C[C@H]5F)c(C#N)c4)n3)cc2)CC1 [Example 119, 2-(((3R,4S)-3-fluoro-1-(2-hydroxyacetyl)piperidin-4-yl)oxy)-5-(4-((4-(4-methylpiperazine-1-carbonyl)phenyl)amino)-1,3,5-triazin-2-yl)benzonitrile] | 2 | 338 | 6 |
| N#Cc1cc(-c2ncnc(Nc3ccc(N4CCN(C5COC5)CC4)cc3)n2)ccc1NC1CCOCC1 [Example 121, 5-(4-((4-(4-(oxetan-3-yl)piperazin-1-yl)phenyl)amino)-1,3,5-triazin-2-yl)-2-((tetrahydro-2H-pyran-4-yl)amino)benzonitrile] | 47 | 32 | 11 |
| C[C@@H](CO)C(=O)N1CC[C@H](Oc2ccc(-c3ncnc(Nc4ccc(N5CCN(C6COC6)CC5)cc4)n3)cc2C#N)[C@H](F)C1 [Example 123, 2-(((3R,4S)-3-fluoro-1-((S)-3-hydroxy-2-methylpropanoyl)piperidin-4-yl)oxy)-5-(4-((4-(4-(oxetan-3-yl)piperazin-1-yl)phenyl)amino)-1,3,5-triazin-2-yl)benzonitrile] | 132 | 546 | 31 |
| N#Cc1cc(-c2ncnc(Nc3ccc(N4CCN(C5COC5)CC4)cc3)n2)ccc1O[C@@H]1CCCN(C(=O)CO)C1 [Example 125, (R)-2-((1-(2-hydroxyacetyl)piperidin-3-yl)oxy)-5-(4-((4-(4-(oxetan-3-yl)piperazin-1-yl)phenyl)amino)-1,3,5-triazin-2-yl)benzonitrile] | 86 | 952 | 31 |
| C[C@H](O)C(=O)N1CCC[C@@H](Oc2ccc(-c3ncnc(Nc4ccc(N5CCN(C6COC6)CC5)cc4)n3)cc2C#N)C1 [Example 126, 2-(((R)-1-((S)-2-hydroxypropanoyl)piperidin-3-yl)oxy)-5-(4-((4-(4-(oxetan-3-yl)piperazin-1-yl)phenyl)amino)-1,3,5-triazin-2-yl)benzonitrile] | 111 | ≥ 1000 | 56 |
| N#Cc1cc(-c2ncnc(Nc3ccc(N4CCN(C5COC5)CC4)cc3)n2)ccc1O[C@H]1CCN(C(=O)[C@H]2CCCN2)C[C@H]1F [Example 130, 2-(((3R,4S)-3-fluoro-1-((R)-pyrrolidine-2-carbonyl)piperidin-4-yl)oxy)-5-(4-((4-(4-(oxetan-3-yl)piperazin-1-yl)phenyl)amino)-1,3,5-triazin-2-yl)benzonitrile] | 73 | ≥ 1000 | 29 |
| N#Cc1cc(-c2ncnc(Nc3ccc(N4CCN(C5COC5)CC4)cc3)n2)ccc1O[C@H]1CCN(C(=O)[C@@H]2CCCCN2)C[C@H]1F [Example 131, 2-(((3R,4S)-3-fluoro-1-((S)-piperidine-2-carbonyl)piperidin-4-yl)oxy)-5-(4-((4-(4-(oxetan-3-yl)piperazin-1-yl)phenyl)amino)-1,3,5-triazin-2-yl)benzonitrile] | 175 | ≥ 1000 | 101 |

Results, then the molecule that gave them:

| IC50 [1] [nM] | IC50 [2] [nM] | IC50 [3] [nM] | SMILES |
| --- | --- | --- | --- |
| 328 | 602 | 146 | N#Cc1cc(-c2ncnc(Nc3ccc(N4CCN(C5COC5)CC4)cc3)n2)ccc1O[C@H]1CCN(C2COC2)C[C@H]1F [Example 111, 2-(((3R,4S)-3-fluoro-1-(oxetan-3-yl)piperidin-4-yl)oxy)-5-(4-((4-(4-(oxetan-3-yl)piperazin-1-yl)phenyl)amino)-1,3,5-triazin-2-yl)benzonitrile] |
| 4 | 375 | 4 | N#Cc1cc(-c2ncnc(Nc3ccc(N4CCN(C5COC5)CC4)cc3)n2)ccc1OC1CCN(C(=O)[C@@H]2CCC(=O)N2)C[C@H]1F (stereo partly drawn) [Example 112, 2-(((3R)-3-fluoro-1-((S)-5-oxopyrrolidine-2-carbonyl)piperidin-4-yl)oxy)-5-(4-((4-(4-(oxetan-3-yl)piperazin-1-yl)phenyl)amino)-1,3,5-triazin-2-yl)benzonitrile] |
| 1 | 146 | 2 | N#Cc1cc(-c2ncnc(Nc3ccc(N4CCN(C5COC5)CC4)cc3)n2)ccc1O[C@H]1CCN(C(=O)[C@@H]2CCC(=O)N2)CC1(F)F [Example 116, 2-(((S)-3,3-difluoro-1-((S)-5-oxopyrrolidine-2-carbonyl)piperidin-4-yl)oxy)-5-(4-((4-(4-(oxetan-3-yl)piperazin-1-yl)phenyl)amino)-1,3,5-triazin-2-yl)benzonitrile] |
| 4 | 342 | 3 | N#Cc1cc(-c2ncnc(Nc3ccc(N4CCN(C5COC5)CC4)cc3)n2)ccc1O[C@H]1CCN(C(=O)[C@@H]2CCCC(=O)N2)C[C@H]1F [Example 117, 2-(((3R,4S)-3-fluoro-1-((S)-6-oxopiperidine-2-carbonyl)piperidin-4-yl)oxy)-5-(4-((4-(4-(oxetan-3-yl)piperazin-1-yl)phenyl)amino)-1,3,5-triazin-2-yl)benzonitrile] |
| 11 | 284 | 7 | N#Cc1cc(-c2ncnc(Nc3ccc(N4CCN(C5COC5)CC4)cc3)n2)ccc1O[C@H]1CCN(C(=O)C2CCS(=O)(=O)N2)C[C@H]1F (stereo partly drawn) [Example 118, 2-(((3R,4S)-1-(1,1-dioxidoisothiazolidine-3-carbonyl)-3-fluoropiperidin-4-yl)oxy)-5-(4-((4-(4-(oxetan-3-yl)piperazin-1-yl)phenyl)amino)-1,3,5-triazin-2-yl)benzonitrile] |
| 2 | 674 | 4 | C[C@H](O)C(=O)N1CC[C@H](Oc2ccc(-c3ncnc(Nc4ccc(C(=O)N5CCN(C)CC5)cc4)n3)cc2C#N)[C@H](F)C1 [Example 120, 2-(((3R,4S)-3-fluoro-1-((S)-2-hydroxypropanoyl)piperidin-4-yl)oxy)-5-(4-((4-(4-methylpiperazine-1-carbonyl)phenyl)amino)-1,3,5-triazin-2-yl)benzonitrile] |
| 15 | 402 | 15 | COC1CCC(Oc2ccc(-c3ncnc(Nc4ccc(N5CCN(C6COC6)CC5)cc4)n3)cc2C#N)CC1 (stereo not drawn) [Example 122, 2-((4-methoxycyclohexyl)oxy)-5-(4-((4-(4-(oxetan-3-yl)piperazin-1-yl)phenyl)amino)-1,3,5-triazin-2-yl)benzonitrile] |
| 54 | 676 | 15 | C[C@H](CO)C(=O)N1CC[C@H](Oc2ccc(-c3ncnc(Nc4ccc(N5CCN(C6COC6)CC5)cc4)n3)cc2C#N)[C@H](F)C1 [Example 124, 2-(((3R,4S)-3-fluoro-1-((R)-3-hydroxy-2-methylpropanoyl)piperidin-4-yl)oxy)-5-(4-((4-(4-(oxetan-3-yl)piperazin-1-yl)phenyl)amino)-1,3,5-triazin-2-yl)benzonitrile] |
| 562 | 394 | 180 | N#Cc1cc(-c2ncnc(Nc3ccc(N4CCN(C5COC5)CC4)cc3)n2)ccc1O[C@H]1CCCN(C(=O)CO)C1 [Example 127, (S)-2-((1-(2-hydroxyacetyl)piperidin-3-yl)oxy)-5-(4-((4-(4-(oxetan-3-yl)piperazin-1-yl)phenyl)amino)-1,3,5-triazin-2-yl)benzonitrile] |
| 177 | 632 | 37 | C[C@H](O)C(=O)N1CCC[C@H](Oc2ccc(-c3ncnc(Nc4ccc(N5CCN(C6COC6)CC5)cc4)n3)cc2C#N)C1 [Example 128, 2-(((S)-1-((S)-2-hydroxypropanoyl)piperidin-3-yl)oxy)-5-(4-((4-(4-(oxetan-3-yl)piperazin-1-yl)phenyl)amino)-1,3,5-triazin-2-yl)benzonitrile] |
| 619 | ≥ 1000 | 334 | N#Cc1cc(-c2ncnc(Nc3ccc(N4CCN(C5COC5)CC4)cc3)n2)ccc1O[C@H]1CCN(C(=O)[C@H]2CCCCN2)C[C@H]1F [Example 129, 2-(((3R,4S)-3-fluoro-1-((R)-piperidine-2-carbonyl)piperidin-4-yl)oxy)-5-(4-((4-(4-(oxetan-3-yl)piperazin-1-yl)phenyl)amino)-1,3,5-triazin-2-yl)benzonitrile] |
| 51 | ≥ 1000 | 25 | N#Cc1cc(-c2ncnc(Nc3ccc(N4CCN(C5COC5)CC4)cc3)n2)ccc1O[C@H]1CCN(C(=O)[C@H]2CC(F)(F)CN2)C[C@H]1F [Example 132, 2-(((3R,4S)-1-((R)-4,4-difluoropyrrolidine-2-carbonyl)-3-fluoropiperidin-4-yl)oxy)-5-(4-((4-(4-(oxetan-3-yl)piperazin-1-yl)phenyl)amino)-1,3,5-triazin-2-yl)benzonitrile] |
